Measurements as given in patent US20140154264A1, “COMPOSITIONS AND METHODS FOR TREATING CANCER AND DISEASES AND CONDITIONS RESPONSIVE TO CELL GROWTH INHIBITION” (THE REGENTS OF THE UNIVERSITY OF CALIFORNIA, priority 2011, published 2014).
Where two headings read alike, the source gives them in different places. Each block holds one compound with its values, some of them ahead of it.

Columns and labels:
[1] = tested on: FG and FG-β3 cells; experiment: tumor sphere formation assay; assay type: cell-based, human; details: for effect of αvβ3 expression on drug resistance: in vitro, FG cells lacking vs expressing αvβ3
Description: (n=3 independent experiments); as discussed in detail in Example 1, below.
Therefore, we examined whether αvβ3 expression also promotes resistance to other growth factor inhibitors and/or cytotoxic agents.
Immunoblot analysis of FG, FG-β3 and FG-β3 stably expressing non-silencing or RalB-specific ShRNA, grown in suspension and treated with erlotinib (0.5 μM). pTBK1 refers to phospho-S172 TBK1, p-p65 NF-κB refers to phospho-p65 NF-κB S276, pFAK refers to phospho-FAK Tyr 861. […] Error bars represent s.d. (n=3 independent experiments). *P<0.05, **P<0.001, NS=not significant. Immunoblot analysis showing NF-κB WT and S276D NF-κB FLAG transfection efficiency. (c) Tumor spheres formation assay of FG-β3 treating with non-silencing (shCTRL) or NF-κB-specific shRNA and exposed to erlotinib (0.5 μM). Error bars represent s.d. (n=3 independent experiments). *P<0.05, NS=not significant. (d) Dose response in FG-β3 cells treated with erlotinib (10 nM to 5 μM), lenalidomide (10 nM to 5 μM) or a combination of erlotinib (10 nM to 5 μM) and lenalidomide (1 μM). Error bars represent s.d. (n=3 independent experiments). *P<0.05, NS=not significant.
Tumor spheres formation assays were performed essentially as described previously^17. Briefly, cells were seeded at 1000 to 2000 cells per well and grown for 12 days to 3 weeks. Cells were treated with vehicle (DMSO), erlotinib (10 nM to 5 μM), lapatinib (10 nM to 5 μM), gemcitabine (0.001 nM to 5 μM), OSI-906 (10 nM to 5 μM), lenalidomide (10 nM to 5 μM), or cisplatin (10 nM to 5 μM), diluted in DMSO. The media was replaced with fresh inhibitor every day for erlotinib, lapatinib, lenalidomide and 3 times a week for cisplatin and gemcitabine. Colonies were stained with crystal violet and scored with an Olympus SZH10 microscope. Survival curves were generated at least with five concentration points.

[2] = tested on: patients with cancer; experiment: cancer patient studies; assay type: in vivo, human; details: various patients with cancer
[3] = target: avb3 (Homo sapiens, UniProt P05106+P06756); experiment: cell-free integrin binding assay
[4] = tested on: orthotopic GBM tumors; experiment: orthotopic brain tumor mouse model; assay type: in vivo
[5] = tested on: angiogenesis and tumor growth; experiment: angiogenesis and tumor growth in vivo
[6] = tested on: C-RAF Ser338; experiment: C-RAF Ser338 phosphorylation in human glioblastoma cell lines; assay type: cell-based
From the text: (§1) These events are associated with reduced cell proliferation in vitro and tumor regression in vivo.

[7] = target: avb5 (Homo sapiens, UniProt P06756+P18084); experiment: cell-free integrin binding assay
[8] = tested on: G2/M progression; experiment: G2/M progression after cilengitide treatment; assay type: cell-based
[9] = tested on: C-RAF S338 phosphorylation; experiment: C-RAF S338 phosphorylation in brain tumors; assay type: in vivo; details: mouse orthotopic model
From the text: as §1

[10] = tested on: H441 human lung adenocarcinoma orthotopic tumors; experiment: orthotopic lung cancer xenograft model; assay type: in vivo, mice; details: systemic erlotinib for 7-8 weeks
From the text: (§2) The longer cells were exposed to erlotinib the greater the expression level of αvβ3 was observed, FIG. 26b. […] Thus, exposure of histologically distinct tumor cells in vitro or in vivo to EGFR inhibitors selects for a tumor cell population expressing high levels of αvβ3.
(a) Flow cytometric quantification of cell surface markers after 3 weeks treatment with erlotinib (pancreatic and colon cancer cells) or lapatinib (breast cancer cells). (b) Flow cytometric analysis of αvβ3 expression in FG and Miapaca-2 cells following erlotinib. Error bars represent s.d. (n=3 independent experiments). […] Bottom, Integrin αvβ3 expression was quantified as ratio of integrin αvβ3 pixel area over nuclei pixel area using Metamorph (*P=0.049 using Mann-Whitney U test). […] Results are expressed as % tumor weight compared to vehicle control. *P<0.05.
Immunostaining was performed according to the manufacturer's recommendations (Vector Labs) on […] sections of paraffin-embedded tumors from the orthotopic xenograft pancreas and lung cancer mouse models^14 or from a metastasis tissue array purchased from US Biomax (MET961). […] Sections stained with integrin β3 and active Ral were scored by a H-score according to the staining intensity (SI) on a scale 0 to 3 within the whole tissue section.

[11] = tested on: orthotopic FG pancreatic tumors; experiment: orthotopic pancreas cancer xenograft model; assay type: in vivo, mice
From the text: as §2
(§3) In all cases, β3 expressing tumor cells were intrinsically more resistant to EGFR blockade than β3-negative tumor cell lines (FIG. 26e).
(a) Flow cytometric quantification of cell surface markers after 3 weeks treatment with erlotinib (pancreatic and colon cancer cells) or lapatinib (breast cancer cells). (b) Flow cytometric analysis of αvβ3 expression in FG and Miapaca-2 cells following erlotinib. Error bars represent s.d. (n=3 independent experiments). (c) Top, immunofluorescence staining of integrin αvβ3 in tissue specimens obtained from orthotopic pancreatic tumors treated with vehicle (n=3) or erlotinib (n=4). Scale bar, 50 μm. Bottom, Integrin αvβ3 expression was quantified as ratio of integrin αvβ3 pixel area over nuclei pixel area using Metamorph (*P=0.049 using Mann-Whitney U test). (d) Right, intensity (scale 0 to 3) of β3 expression in mouse orthotopic lung tumors treated with vehicle (n=8) or erlotinib (n=7). Left, immunohistochemical staining of β3. Scale bar, 100 μm. […] Results are expressed as % tumor weight compared to vehicle control. *P<0.05. […]

[12] = tested on: PANC-1 cells; experiment: tumor sphere formation assay; assay type: cell-based, human; details: αvβ3 knockdown vs control
From the text: as §3
(a) Flow cytometric quantification of cell surface markers after 3 weeks treatment with erlotinib (pancreatic and colon cancer cells) or lapatinib (breast cancer cells). (b) Flow cytometric analysis of αvβ3 expression in FG and Miapaca-2 cells following erlotinib. Error bars represent s.d. (n=3 independent experiments). (c) Top, immunofluorescence staining of integrin αvβ3 in tissue specimens obtained from orthotopic pancreatic tumors treated with vehicle (n=3) or erlotinib (n=4). Scale bar, 50 μm. Bottom, Integrin αvβ3 expression was quantified as ratio of integrin αvβ3 pixel area over nuclei pixel area using Metamorph (*P=0.049 using Mann-Whitney U test). (d) Right, intensity (scale 0 to 3) of β3 expression in mouse orthotopic lung tumors treated with vehicle (n=8) or erlotinib (n=7). Left, immunohistochemical staining of β3. Scale bar, 100 μm. […] (f) Tumor sphere formation assay to establish a dose-response for erlotinib. Error bars represent s.d. (n=3 independent experiments). […] Results are expressed as % tumor weight compared to vehicle control. *P<0.05.
Tumor spheres formation assays were performed essentially as described previously^17. […] Colonies were stained with crystal violet and scored with an Olympus SZH10 microscope.

[13] = tested on: phosphorylated TBK1; experiment: immunoblot analysis of cells grown in suspension and treated with erlotinib; assay type: cell-based, human; details: erlotinib 0.5 μM
Description: (§4) In addition, it has been shown that NF-κB signaling is essential for KRAS-driven tumor growth and resistance to EGFR blockade^27-29. This prompted us to ask whether αvβ3 could regulate NF-κB activity through RalB activation and thereby promote tumor cell resistance to EGFR targeted therapy. To test this, tumor cells expressing or lacking integrin αvβ3 and/or RalB were grown in the presence or absence of erlotinib and lysates of these cells were analyzed for activated downstream effectors of RalB. […] NF-κB activity was sufficient to account for EGFR inhibitor resistance since ectopically expressed a constitutively active NF-κB (S276D) in β3-negative FG pancreatic tumor cells^30 conferred resistance to EGFR inhibition, see FIG. 29b). […] Together, our studies describe a role for αvβ3 mediating resistance to EGFR inhibition via RalB activation and its downstream effector NF-κB, opening new avenues to target tumors that are resistant to EGFR targeted therapy, see FIG. 29e.
(§5) Immunoblot analysis of FG, FG-β3 and FG-β3 stably expressing non-silencing or RalB-specific ShRNA, grown in suspension and treated with erlotinib (0.5 μM). pTBK1 refers to phospho-S172 TBK1, p-p65 NF-κB refers to phospho-p65 NF-κB S276, pFAK refers to phospho-FAK Tyr 861. Data are representative of three independent experiments. (b) Tumor spheres formation assay of FG cells ectopically expressing vector control, WT NF-κB FLAG tagged or constitutively active S276D NF-κB FLAG tagged constructs treated with erlotinib (0.5 μM). Error bars represent s.d. (n=3 independent experiments). *P<0.05, **P<0.001, NS=not significant. Immunoblot analysis showing NF-κB WT and S276D NF-κB FLAG transfection efficiency. (c) Tumor spheres formation assay of FG-β3 treating with non-silencing (shCTRL) or NF-κB-specific shRNA and exposed to erlotinib (0.5 μM). Error bars represent s.d. (n=3 independent experiments). *P<0.05, NS=not significant. (d) Dose response in FG-β3 cells treated with erlotinib (10 nM to 5 μM), lenalidomide (10 nM to 5 μM) or a combination of erlotinib (10 nM to 5 μM) and lenalidomide (1 μM). Error bars represent s.d. (n=3 independent experiments). *P<0.05, NS=not significant. (e) Model depicting the integrin αvβ3-mediated EGFR TKI resistance and conquering EGFR TKI resistance pathway and its downstream RalB and NF-κB effectors.
(§6) Cells were lysed in either RIPA lysis buffer (50 mM Tris pH 7.4, 100 mM NaCL, 2 mM EDTA, […], 10% Triton, 0.1% SDS) or Triton lysis buffer (50 mM Tris pH 7.5, 150 mN NaCl, 1 mM EDTA, 5 mM MgCl2, 10% Glycerol, 1% Triton) supplemented with complete protease and phosphatase inhibitor mixtures (Roche) and centrifuged at 13,000 g for 10 min at 4° C. Protein concentration was determined by BCA assay. […]

[14] = tested on: phosphorylated NF-κB; experiment: as above; assay type: cell-based, human; details: erlotinib 0.5 μM
Description: as §4, §5, §6

Sequence of avb5 (P06756 31-889 limits assumed): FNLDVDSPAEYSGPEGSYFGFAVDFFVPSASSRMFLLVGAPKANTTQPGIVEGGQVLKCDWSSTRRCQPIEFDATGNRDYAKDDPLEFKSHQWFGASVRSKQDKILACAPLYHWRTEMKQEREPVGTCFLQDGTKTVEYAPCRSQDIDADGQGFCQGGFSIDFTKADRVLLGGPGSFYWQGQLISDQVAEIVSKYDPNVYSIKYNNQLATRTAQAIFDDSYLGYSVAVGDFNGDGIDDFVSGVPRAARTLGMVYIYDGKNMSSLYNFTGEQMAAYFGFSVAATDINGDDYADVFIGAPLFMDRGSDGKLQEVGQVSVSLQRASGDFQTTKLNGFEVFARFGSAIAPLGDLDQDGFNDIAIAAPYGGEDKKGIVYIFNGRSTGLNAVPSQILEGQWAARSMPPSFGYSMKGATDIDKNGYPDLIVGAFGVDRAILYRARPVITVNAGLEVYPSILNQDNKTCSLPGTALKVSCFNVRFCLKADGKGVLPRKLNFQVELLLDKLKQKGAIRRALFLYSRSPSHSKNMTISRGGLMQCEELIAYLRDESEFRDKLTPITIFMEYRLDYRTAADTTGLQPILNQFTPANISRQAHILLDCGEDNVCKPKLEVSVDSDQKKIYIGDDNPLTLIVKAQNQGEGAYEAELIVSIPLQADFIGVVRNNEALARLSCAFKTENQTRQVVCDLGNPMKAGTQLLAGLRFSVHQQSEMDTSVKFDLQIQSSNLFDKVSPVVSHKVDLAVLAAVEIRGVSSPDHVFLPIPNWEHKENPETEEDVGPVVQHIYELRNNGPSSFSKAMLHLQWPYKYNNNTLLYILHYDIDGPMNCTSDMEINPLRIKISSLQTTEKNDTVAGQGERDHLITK
Sequence of avb5 (P06756 891-1048 limits assumed): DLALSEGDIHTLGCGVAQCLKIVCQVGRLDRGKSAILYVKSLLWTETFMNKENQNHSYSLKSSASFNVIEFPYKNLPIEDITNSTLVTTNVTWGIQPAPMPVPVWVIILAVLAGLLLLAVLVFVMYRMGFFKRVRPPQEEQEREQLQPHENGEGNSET
Sequence of avb5 (P18084 24-799): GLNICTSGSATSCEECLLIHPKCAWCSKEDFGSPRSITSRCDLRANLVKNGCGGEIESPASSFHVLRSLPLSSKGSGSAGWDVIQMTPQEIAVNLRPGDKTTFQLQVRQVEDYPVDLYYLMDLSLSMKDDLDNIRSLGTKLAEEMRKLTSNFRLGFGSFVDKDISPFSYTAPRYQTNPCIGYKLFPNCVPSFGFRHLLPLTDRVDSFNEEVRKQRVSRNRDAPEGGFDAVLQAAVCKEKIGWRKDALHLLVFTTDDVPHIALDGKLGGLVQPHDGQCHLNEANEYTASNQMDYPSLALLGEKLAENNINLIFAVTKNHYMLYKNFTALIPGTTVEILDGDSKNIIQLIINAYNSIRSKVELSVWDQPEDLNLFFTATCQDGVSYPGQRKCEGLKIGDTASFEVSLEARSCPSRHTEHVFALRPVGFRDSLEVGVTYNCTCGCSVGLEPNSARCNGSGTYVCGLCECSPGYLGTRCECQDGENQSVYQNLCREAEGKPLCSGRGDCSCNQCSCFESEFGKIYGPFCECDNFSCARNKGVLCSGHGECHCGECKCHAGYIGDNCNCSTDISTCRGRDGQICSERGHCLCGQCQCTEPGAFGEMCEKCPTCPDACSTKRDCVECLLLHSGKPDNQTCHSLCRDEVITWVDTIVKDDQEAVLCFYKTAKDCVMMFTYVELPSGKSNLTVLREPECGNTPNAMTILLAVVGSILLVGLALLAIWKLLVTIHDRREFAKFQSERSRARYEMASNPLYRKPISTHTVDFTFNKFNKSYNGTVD
Sequence of avb3 (P06756 31-889 limits assumed): as the sequence (P06756 31-889 limits assumed) above
Sequence of avb3 (P06756 891-1048 limits assumed): as the sequence (P06756 891-1048 limits assumed) above
Sequence of avb3 (P05106 27-788): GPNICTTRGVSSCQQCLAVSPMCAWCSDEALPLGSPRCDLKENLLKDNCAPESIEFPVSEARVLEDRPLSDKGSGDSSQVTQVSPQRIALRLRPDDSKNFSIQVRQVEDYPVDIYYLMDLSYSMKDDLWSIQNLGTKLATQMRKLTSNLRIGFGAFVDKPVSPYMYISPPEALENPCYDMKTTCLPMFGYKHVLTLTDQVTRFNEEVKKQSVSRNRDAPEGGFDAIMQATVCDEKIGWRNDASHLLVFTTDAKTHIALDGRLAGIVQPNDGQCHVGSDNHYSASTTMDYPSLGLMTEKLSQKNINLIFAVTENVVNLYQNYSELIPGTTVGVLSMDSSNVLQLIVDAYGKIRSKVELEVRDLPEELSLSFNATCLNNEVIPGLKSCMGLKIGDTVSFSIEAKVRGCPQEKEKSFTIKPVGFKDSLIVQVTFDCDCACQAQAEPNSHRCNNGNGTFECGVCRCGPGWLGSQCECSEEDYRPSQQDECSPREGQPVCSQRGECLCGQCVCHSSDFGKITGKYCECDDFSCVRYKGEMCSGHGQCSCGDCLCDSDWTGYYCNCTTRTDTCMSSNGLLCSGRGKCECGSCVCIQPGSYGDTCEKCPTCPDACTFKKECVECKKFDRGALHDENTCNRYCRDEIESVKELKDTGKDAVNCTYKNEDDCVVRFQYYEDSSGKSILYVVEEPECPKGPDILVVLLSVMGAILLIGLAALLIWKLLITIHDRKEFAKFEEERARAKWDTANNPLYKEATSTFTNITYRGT

SMILES: C[C@]1(O)C[C@@H](c2nc(-c3ccc4ccc(-c5ccccc5)nc4c3)c3c(N)nccn32)C1 [OSI-906]
effect of αvβ3 expression on drug resistance [1]: induced resistance

inhibition of ligand binding to integrin avb3 [3]: inhibit ligand binding
inhibition of ligand binding to integrin avb3 ([3]; listed as EMD 121974): potent inhibitor
inhibition of ligand binding to integrin avb5 [7]: inhibit ligand binding
inhibition of ligand binding to integrin avb5 ([7]; listed as EMD 121974): potent inhibitor
SMILES: CC(C)[C@H]1C(=O)N[C@@H](CCCN=C(N)N)C(=O)NCC(=O)N[C@@H](CC(=O)O)C(=O)N[C@H](Cc2ccccc2)C(=O)N1C [cilengitide]
efficacy in cancer patients [2]: potentially efficacious in some patients
toxicity in cancer patients [2]: non-toxic
orthotopic GBM tumor vascularization and growth ([4]; CD31, Ki-67 and TUNEL staining): inhibits orthotopic GBM tumor vascularization and growth
tumor burden ([4]; GBM tumors implanted in the brain): decreases tumor burden
orthotopic GBM tumor burden ([4]; sub-optimal doses of cilengitide and radiation combined): synergize to reduce orthotopic GBM tumor burden
angiogenesis and tumor growth in vivo [5]: inhibited angiogenesis and tumor growth
activation/phosphorylation of C-RAF Ser338 [6]: prevents the activation/phosphorylation of C-RAF Ser338
G2/M progression [8]: blocks G2/M progression
C-RAF S338 phosphorylation [9]: blocks C-RAF S338 phosphorylation
C-RAF S338 phosphorylation ([9]; listed as Cilengitide): prevents the activation/phosphorylation of C-RAF Ser338

SMILES: N.N.[Cl][Pt][Cl] [cisplatin]
effect of αvβ3 expression on drug resistance [1]: failed to protect cells

SMILES: C#Cc1cccc(Nc2ncnc3cc(OCCOC)c(OCCOC)cc23)c1 [erlotinib]
integrin αvβ3 expression compared with vehicle-treated tumors [10]: qualitative increase
increase in αvβ3 expression ([11]; four weeks of erlotinib treatment): 10 fold
effect of ectopic expression of αvβ3 on drug resistance ([11]; orthotopic pancreatic tumors after systemic treatment): dramatically increased erlotinib resistance
effect of αvβ3 expression on drug resistance [1]: dramatically increased erlotinib resistance
erlotinib sensitivity under genetic or pharmacological inhibition of NF-κB ([1]; β3-positive cells, FIG. 29d combination with lenalidomide (1 μM)): completely restored erlotinib sensitivity
increase in tumor cell sensitivity on knockdown of αvβ3 [12]: 10 fold
levels of phosphorylated TBK1 ([13]; αvβ3 negative cells): reduced levels
levels of phosphorylated TBK1 ([13]; β3-positive cells): remained activated
levels of phosphorylated NF-κB ([14]; αvβ3 negative cells): reduced levels
levels of phosphorylated NF-κB ([14]; β3-positive cells): remained activated

SMILES: Nc1ccn([C@@H]2O[C@H](CO)[C@@H](O)C2(F)F)c(=O)n1 [gemcitabine]
effect of αvβ3 expression on drug resistance [1]: failed to protect cells
